In patent US20190099413A1, “DRUG FOR CANCER THERAPY CHARACTERIZED IN THAT AXL INHIBITOR AND IMMUNE CHECKPOINT INHIBITOR ARE ADMINISTERED IN COMBINATION” (ONO PHARMACEUTICAL CO., LTD., priority 2016, published 2019):

Test system: mouse colon cancer cell line MC38
Test: Anti-tumor action on mouse colon cancer cell line MC38 subcutaneous cancer-bearing model
Assay type: in vivo
Settings: for average volume of tumors on day 14: C57/BL6 mice; for Number of cases where tumor was eliminated: observed until 28th day, cases/n; for mice in which cancer had been eliminated: single administration or combined use with 4H2
Method: Biological Example 1: Evaluation of Anti-Tumor Action by Combined Use of Compound A and Anti-PD-1 Antibody on Mouse Colon Cancer Cell Line MC38 Subcutaneous Cancer-Bearing Model (In Vivo)
For the compound A, mouse feed CRF-1 containing 0.0013% or 0.013% compound A was manufactured by Oriental Yeast Co., Ltd. so as to be administered at a dose of 2 or 20 mg/kg/day via diet. 4H2 as the anti-mouse PD-1 antibody, which had been prepared in KITAYAMA LABES CO., LTD., was obtained. C57/BL6 mouse colon cancer cell line MC38 was subcutaneously transplanted into dorsal parts of […] syngeneic mice (C57/BL6, female, 6 weeks old (Charles River Laboratories Japan, Inc.)) to produce MC38 subcutaneous cancer-bearing mice. On the day when the average of tumor volumes reached 150 mm^3, group assignment was carried out based on the tumor volumes (the day on which administration was started was defined as Day 0). To the MC38 subcutaneous cancer-bearing mice, PBS (on days 0, 6, 12, 18, and 24, intraperitoneal administration, n=9), 4H2 (on Day 0, 20 mg/kg/day and on days 6, 12, 18, and 24, 10 mg/kg/day, intraperitoneal administration, n=8), the compound A (on days 0 to 28, 2 mg/kg, administration via diet (n=9)), the compound A (on days 0 to 28, 20 mg/kg, administration via diet (n=9)), combined use of 4H2 and the compound A (compound A, 2 mg/kg (n=9)), and combined use of 4H2 and the compound A (compound A, 20 mg/kg (n=9)) were administered. Change of the volume of tumor was observed continuously until the 28th day. Note here that, from the viewpoint of the animal ethics, a mouse whose tumor exceeded 3000 mm^3 in volume was euthanatized, and evaluation for the group to which the euthanatized mouse belonged was stopped at this point.

COc1cc2nccc(Oc3ccc(NC(=O)c4cc5c(n(-c6ccccc6)c4=O)CCCC5=O)nc3)c2cc1OC [Compound A, N-{5-[(6,7-dimethoxy-4-quinolinyl)oxy]-2-pyridinyl}-2,5-dioxo-1-phenyl-1,2,5,6,7,8-hexahydro-3-quinolinecarboxamide]
average volume of tumors on day 14 (compound A 2 mg/kg via diet days 0 to 28, alone or combined with 4H2 (20 then 10 mg/kg/day i.p.)): 1379.5 mm^3
Number of cases where tumor was eliminated (compound A 2 mg/kg via diet days 0 to 28, alone or combined with 4H2): 1/9
mice in which cancer had been eliminated (compound A 2 mg/kg): one
average volume of tumors on day 14 (compound A 20 mg/kg via diet days 0 to 28, alone or combined with 4H2 (20 then 10 mg/kg/day i.p.)): 639.3 mm^3
Number of cases where tumor was eliminated (compound A 20 mg/kg via diet days 0 to 28, alone or combined with 4H2): 1/9
mice in which cancer had been eliminated (compound A 20 mg/kg): one
